Data from US11634447B2 (priority 2012, dated 2023).

What follows are compounds tested on bacterial strain LF82 binding to the glycoprotein BSA-(Mannose)3 (assay: Bacterial Binding Assay (BBA)). Details: read-out: Bacterial Binding Assay IC50, LF82/Luciferase strain binding to BSA-(Man)3 coated plates, luminescence.
Format: cell-based, Escherichia coli
Source text: The purpose of the Bacterial Binding Assay (BBA) is to determine the inhibition activity of
selective FimH antagonists on the bacterial strain LF82 binding to the glycoprotein BSA-(Mannose)3.
Below is a list of the Materials used to run the BBA are described below. • 1. LB broth: Supplier: Gibco, #10855 • 2. D-PBS: Supplier: Wisent, #311-425-CL • 3. LB agar plates • 4. 96-well black plate (high binding): Supplier: Costar, #3925 • 5. TopSeal™-A adhesive sealing films; Supplier PerkinElmer, #6005185 • 6. Carbonate-bicarbonate buffer pH 9.6 tablets, Supplier: Medicago, #09-8922-24 • 7. Water, Supplier: Gibco, #15230-162 • 8. Bovine serum albumin (BSA): Supplier: Sigma, #A-7888 • 9. (Man)3-BSA (α1-3, α1-6 Mannotriose-BSA, 1 mg), V-Labs, #NGP1336, lot #HGDX37-169-1 • 10. Tween 20: Supplier: Sigma, #P9416 • 11. Bright-Glo Luciferase Assay System: Supplier: Promega, #E2610 • 12. LF82/Luciferase strain: Invasive ability of an Escherichia coli strain isolated from the ileal mucosa of a patient with Crohn ? disease. Boudeau J, Glasser A L, Masseret E, Joly B, Darfeuille-Michaud A, Infect Immun. 1999, 67(9), 4499-509
Solutions and buffers used to run the BBA are described below. • 1. 0.04M carbonate-bicarbonate buffer (coating buffer) • 2. 40 μg/mL BSA-(Man)3: Dissolve 1 mg of (Man)3-BSA in 25 mL of water. • 3. 4000 μg/mL BSA • 4. 40 μg/mL BSA • 5. 1 μg/mL BSA-(Man)3: 150 μL of 40 μg/mL BSA-(Man)3+5.85 mL of 40 μg/mL BSA • 6. 0.5 μg/mL BSA-(Man)3 in 0.02M carbonate-bicarbonate buffer. • 7. 20 μg/mL BSA in 0.02M carbonate-bicarbonate buffer • 8. Blocking buffer (2% BSA/DPBS): 1 g of BSA in 50 mL D-PBS • 9. 2× binding buffer (0.2% BSA/D-PBS): 5 mL of blocking buffer+45 mL D-PBS. • 10. Washing buffer (D-PBS/0.01% Tween 20): 10 μL of Tween 20 in 100 mL D-PBS. • 11. 1× Bright-Glo Luciferase substrate: Dilute 1:1 the Bright-Glo Luciferase Assay System with D-PBS The experimental protocol to run the BBA is described below.
Overnight culture of LF82/Luciferase strain: Into two Falcon 50 mL tubes, add 20 mL of LB+20 μL of 50 mg/mL Kanamycin and inoculate with a loop from glycerol stock of the LF82/Luciferase strain. Incubate overnight at 37° C. with no shaking.
Glycoprotein coating of 96-well plates: Add 100 μL/well of 0.5-2 μg/mL BSA-(Man)3. 20 μg/mL BSA is used as the control background. Seal plate using an adhesive sealing film and incubate overnight at room temperature. Wash the 96-well plate three times with 150 μL/well of D-PBS, add 170 μL/well of blocking solution and incubate 45 min (minimum) at room temperature.
Preparation of bacterial suspension: Mix the two cultures tubes (40 mL) and perform a 1:10 dilution in LB (900 μl LB+100 μl culture. Measure optical density (OD) of the bacterial cultures. OD1 ˜5×10^8 cells/mL. Centrifuge LF82 culture for 20 min at 3500 rpm at room temperature. Re-suspend bacterial pellet in D-PBS and centrifuge again for 20 min at 3500 rpm. Re-suspend bacterial pellet in D-PBS to obtain a bacterial concentration of 2×10^9 bacteria/mL. Dilute 1/10 in D-PBS to obtain a final bacterial concentration of 2×10^8 bacteria/mL (=107 bacteria/50 μL). Perform 1/10 serial dilutions in LB of each bacterial suspension, plate 10 μL of dilutions on LB agar plates (final dilutions of 10^−7) and incubate overnight at 37° C. and count CFUs to determine the actual bacteria density in the assay.
Bacterial binding assay: Add 147 μL 2× binding buffer to compound plate (containing 3 μL of compound). After blocking step is performed (at least 45 min), wash plates three times with 200 μL/well of D-PBS. With a 100 μL multichannel manual pipettor, add 50 µL/well of compound diluted in 2× binding buffer. With a 100 μL multichannel manual pipettor, add 50 μL/well of bacterial suspension. Agitate at slow speed for 1 min and incubate 40-75 min at room temperature. Wash 5 times with 150 μL/well of washing buffer and then once with D-PBS. Add 100 μL/well of 1× Bright-Glo Luciferase substrate. […]

Compound	IC50
OC[C@H]1O[C@H](C#Cc2ccc3[nH]c4ccc(C#C[C@H]5O[C@H](CO)[C@@H](O)[C@H](O)[C@@H]5O)cc4c3c2)[C@@H](O)[C@@H](O)[C@@H]1O [Compound 108, (2R,3S,4R,5S,6R)-2-(hydroxymethyl)-6-[2-[6-[2-[(2R,3S,4R,5S,6R)-3,4,5-trihydroxy-6-(hydroxymethyl)tetrahydropyran-2-yl]ethynyl]-9H-carbazol-3-yl]ethynyl]tetrahydropyran-3,4,5-triol]	28 nM
CC(C)(c1ccc(C#C[C@H]2O[C@H](CO)[C@@H](O)[C@H](O)[C@@H]2O)cc1)c1ccc(C#C[C@H]2O[C@H](CO)[C@@H](O)[C@H](O)[C@@H]2O)cc1 [Compound 122, (2R,3S,4R,5S,6R)-2-(hydroxymethyl)-6-[2-[4-[1-methyl-1-[4-[2-[(2R,3S,4R,5S,6R)-3,4,5-trihydroxy-6-(hydroxymethyl)tetrahydropyran-2-yl]ethynyl]phenyl]ethyl]phenyl]ethynyl]tetrahydropyran-3,4,5-triol]	29 nM
OC[C@H]1O[C@H](C#Cc2ccc3c(c2)C2(C[C@@H](O)[C@@H](O)C2)c2cc(C#C[C@H]4O[C@H](CO)[C@@H](O)[C@H](O)[C@@H]4O)ccc2-3)[C@@H](O)[C@@H](O)[C@@H]1O (stereo partly drawn) [Compound 194, (2R,3 S,4R,5S,6R)-2-[2-[(3R,4S)-3,4-Dihydroxy-7[2-[(2R,3 S,4R,5S,6R)-3,4,5-trihydroxy-6-(hydroxymethyl)tetrahydropyran-2-yl]ethynyl]spiro[cyclopentane-1,9fluorene]-2yl]ethynyl]-6-(hydroxymethyl)tetrahydropyran-3,4,5-triol]	0.27 nM
CCOC(=O)c1c(C#C[C@H]2O[C@H](CO)[C@@H](O)[C@H](O)[C@@H]2O)ccc2c1C1(CCNCC1)c1cc(C#C[C@H]3O[C@H](CO)[C@@H](O)[C@H](O)[C@@H]3O)ccc1-2 [Compound 209, ethyl 2,7-bis[2-[(2R,3S,4R,5S,6R)-3,4,5-trihydroxy-6-(hydroxymethyl)tetrahydropyran-2-yl]ethynyl]spiro[fluorene-9,4 piperidine]-1 carboxylate]	0.07 nM
Cc1cc(-c2ccc([C@H]3O[C@H](CO)[C@@H](O)[C@H](O)[C@@H]3O)cc2F)ccc1[C@H]1O[C@H](CO)[C@@H](O)[C@H](O)[C@@H]1O [Compound 150, (2R,2,3S,3,4R,4,5S,5,6R,6)-6,6(2-fluoro-3methyl-[1,1biphenyl]-4,4diyl)bis(2-(hydroxymethyl)tetrahydro-2H-pyran-3,4,5-triol)]	71 nM
Cc1cc(-c2ccc(C#C[C@H]3O[C@H](CO)[C@@H](O)[C@H](O)[C@@H]3O)c(C)c2)ccc1C#C[C@H]1O[C@H](CO)[C@@H](O)[C@H](O)[C@@H]1O [Compound 121, (2R,3S,4R,5S,6R)-2-(hydroxymethyl)-6-[2-[2-methyl-4-[3-methyl-4-[2-[(2R,3S,4R,5S,6R)-3,4,5-trihydroxy-6-(hydroxymethyl)tetrahydropyran-2-yl]ethynyl]phenyl]phenyl]ethynyl]tetrahydropyran-3,4,5-triol]	12 nM
Cc1cc(C2CC2c2ccc([C@H]3O[C@H](CO)[C@@H](O)[C@H](O)[C@@H]3O)cc2)ccc1[C@H]1O[C@H](CO)[C@@H](O)[C@H](O)[C@@H]1O (some centres unmarked) [Compound 156]	18 nM
CN(C)CC(=O)c1c(C#C[C@H]2O[C@H](CO)[C@@H](O)[C@H](O)[C@@H]2O)ccc2c1C1(CCNCC1)c1cc(C#C[C@H]3O[C@H](CO)[C@@H](O)[C@H](O)[C@@H]3O)ccc1-2 [Compound 222, 1-[2,7-bis[2-[(2R,3S,4R,5S,6R)-3,4,5-trihydroxy-6-(hydroxymethyl)tetrahydropyran-2-yl]ethynyl]spiro[fluorene-9,4piperidine]-1yl]-2-(dimethylamino)ethanone]	0.08 nM
OC[C@H]1O[C@H](C#Cc2cc(F)c(C#C[C@H]3O[C@H](CO)[C@@H](O)[C@H](O)[C@@H]3O)cc2F)[C@@H](O)[C@@H](O)[C@@H]1O [Compound 88, (2R,3S,4R,5S,6R)-2-[2-[2,5-difluoro-4-[2-[(2R,3S,4R,5S,6R)-3,4,5-trihydroxy-6-(hydroxymethyl)tetrahydropyran-2-yl]ethynyl]phenyl]ethynyl]-6-(hydroxymethyl)tetrahydropyran-3,4,5-triol]	132 nM
OC[C@H]1O[C@H](C#Cc2ccc3c(c2)[nH]c2cc(C#C[C@H]4O[C@H](CO)[C@@H](O)[C@H](O)[C@@H]4O)ccc23)[C@@H](O)[C@@H](O)[C@@H]1O [Compound 118, (2R,3S,4R,5S,6R)-2-(hydroxymethyl)-6-[2-[7-[2-[(2R,3S,4R,5S,6R)-3,4,5-trihydroxy-6-(hydroxymethyl)tetrahydropyran-2-yl]ethynyl]-9H-carbazol-2-yl]ethynyl]tetrahydropyran-3,4,5-triol]	22 nM
OC[C@H]1O[C@H](C#Cc2ccc3nc(C#C[C@H]4O[C@H](CO)[C@@H](O)[C@H](O)[C@@H]4O)ncc3c2)[C@@H](O)[C@@H](O)[C@@H]1O [Compound 127, (2R,3S,4R,5S,6R)-2-(hydroxymethyl)-6-[2-[2-[2-[(2R,3S,4R,5S,6R)-3,4,5-trihydroxy-6-(hydroxymethyl)tetrahydropyran-2-yl]ethynyl]quinazolin-6-yl]ethynyl]tetrahydropyran-3,4,5-triol]	43 nM
OCC(O)CC1(O)c2cc(C#C[C@H]3O[C@H](CO)[C@@H](O)[C@H](O)[C@@H]3O)ccc2-c2ccc(C#C[C@H]3O[C@H](CO)[C@@H](O)[C@H](O)[C@@H]3O)cc21 (stereo partly drawn) [Compound 196, (2R,3S,4R,5S,6R)-2-[2-[9-(2,3-dihydroxypropyl)-9-hydroxy-7-[2-[(2R,3S,4R,5S,6R)-3,4,5-trihydroxy-6-(hydroxymethyl)tetrahydropyran-2-yl]ethynyl]fluoren-2-yl]ethynyl]-6-(hydroxymethyl)tetrahydropyran-3,4,5-triol]	28 nM
OCCC1(CCO)c2cc(C#C[C@H]3O[C@H](CO)[C@@H](O)[C@H](O)[C@@H]3O)ccc2-c2ccc(C#C[C@H]3O[C@H](CO)[C@@H](O)[C@H](O)[C@@H]3O)cc21 [Compound 193, (2R,3S,4R,5S,6R)-2-[2-[9,9-Bis(2-hydroxyethyl)-7-[2-[(2R,3S,4R,5S,6R)-3,4,5-trihydroxy-6-(hydroxymethyl)tetrahydropyran-2-yl]ethynyl]fluoren-2-yl]ethynyl]-6-(hydroxymethyl)tetrahydropyran-3,4,5-triol]	0.27 nM
Cn1nccc1C(=O)c1c(C#C[C@H]2O[C@H](CO)[C@@H](O)[C@H](O)[C@@H]2O)ccc2c1C1(CCNCC1)c1cc(C#C[C@H]3O[C@H](CO)[C@@H](O)[C@H](O)[C@@H]3O)ccc1-2 [Compound 237, [2,7-bis[2-[(2R,3S,4R,5S,6R)-3,4,5-trihydroxy-6-(hydroxymethyl)tetrahydropyran-2-yl]ethynyl]spiro[fluorene-9,4piperidine]-1yl]-(2-methylpyrazol-3-yl)methanone]	0.22 nM
